Assays:
[1] = tested on: NQO1 positive tumor cell lines MC38, TC-1 and Ag104Ld; assay type: cell-based; conditions: MC38 and B16 NQO1 cells, β-lap 3 hr, catalase 1000 U/ml, survival 48 hr later
Method: (FIG. 1A) NQO1 positive tumor cell lines MC38, TC-1 and Ag104Ld and NQO1 negative cell lines Panc02 and B16 grown in 48-well plates were treated with β-lap (0-8 μM) for a 3 hr followed by washing and replacing medium. Cell viability was determined by Sulforhodamine B (SRB) Assay 4 days later. […] (FIG. 1C) MC38 cells with CRISPR-based NQO1 Knockout (MC38 NQO1KO #5) planted in 96-well plates were exposed to β-lap for 3 hr and cell survival was assessed 48 hr later. […] (FIG. 1E) MC38 cells were exposed to a lethal dose of β-lap (4 μM) for indicated times, then stained with 7-AAD and Annexin V followed by flow cytometry analysis. […] (FIG. 1H) MC38 and B16 NQO1 #1 cells were exposed to β-lap for a 3 hr. Catalase (1000 U/ml) was added and cell survival was assessed 48 hr later. (FIG. 1I) C57BL/6 mice (n=5/group) were transplanted with MC38 cells and treated with β-lap (0.03 mg, 0.1 mg or 0.3 mg, intratumorally; or 25 mg/kg, i.v.) every other day for four times. […] Tumor growth was monitored twice a week.
(FIG. 8A) NQO1 expression in multiple murine tumor lines was immunoblotted as indicated. […] Drugs were removed and survival assessed 5 days later. (FIG. 8C) Relative H2O2 levels were assessed in various cells treated with β-lap for 3 h at the indicated doses using CellRox-Glo. […] (FIG. 8D) TC-1 cells exposure to β-lap for 12 h, later PARP-1 and Caspase-3 levels were analyzed by western blotting assay. […]
(FIGS. 14A-C) NQO1 cells MC38 (A) and TC-1 (B) and NQO1^− cells B16 (C) were treated for 2 h with various doses of IB-DNQ±DIC (50 μM). Drugs were removed and survival assessed 6 days later. […] (FIGS. 14E-F) Relative NAD^+ (E) or ATP (F) levels were assessed in TC-1 cells exposed to various doses of IB-DNQ for 2 h. […] Comet tail lengths in a.u. were monitored at indicated time; and DSBs quantified by γH2AX foci/nuclei using immunofluorescence at indicated time (FIG. 14H). […]
(FIG. 21A) Viability of murine cell lines following IB-DNQ treatment for 4 h. […] (FIGS. 21D-E) DNA double strand break was assessed via comet assay (FIG. 21D) and γH2AX foci/nuclei immunofluorescence (FIG. 21E). […]

[2] = Formulation of DNQ compounds in HPβCD; assay type: physicochemical
Source text: This same neutral solution of DNQ in HPβCD cannot be made directly (i.e. without pH adjustment). […] The only proton on DNQ that might reasonably be deprotonated in aqueous base is the N—H. […] The protocol for formulating DNQ compounds in HPβCD is as follows: the DNQ compound is slurried in a 20% solution of HPβCD in pH 7.4 PBS and the pH is then increased by the addition of 10 M NaOH to induce dissolution of the DNQ compound. The pH is returned to pH 7.5-8.0 by the careful addition of 1 M HCl. A 3.3 mM solution of the DNQ compound can be made by this method which is stable at least 24 hours. This represents a 30-fold increase in solubility of DNQ over PBS alone. The inventors initially chose a 20% HPβCD solution.

[3] = Aqueous solubility of DNQ in PBS by LC-MS; assay type: physicochemical; conditions: pH 7.4 phosphate buffered saline, 30 min sonication, filtered
Method: The aqueous solubility of DNQ at pH 7.4 in phosphate buffered saline (PBS) was measured by LC-MS. DNQ was sonicated for 30 minutes in PBS then undissolved solid was removed by filtration through a 0.45 μm syringe filter and the filtrate was analyzed by LC-MS (λ=275 nm, ESI-TOF in negative mode). The optimal sonication time was determined by sonicating DNQ for 1, 5, 10, and 30 minutes. While the concentration of DNQ in solution increased substantially between 1, 5, and 10 minutes, there was only a minor difference between 10 and 30 minutes. During the 30-minute sonication the water bath warmed to 45° C. (samples were cooled to room temperature before filtration). A calibration curve was generated from 1-100 μM by dissolving DNQ in methanol to a concentration of 500 μM and making dilutions of this stock in 80:20 water:methanol. The calibration curve (measure by UV absorbance) was linear over this range; 1 μM was approximately the limit of detection. […] The solution was very pale yellow.

NQO1 = NQO1 (Homo sapiens, UniProt P15559); experiment: NQO1-catalyzed futile redox cycle / processing in vitro; assay type: biochemical; conditions: compared with β-lap
NQO1, sequence (P15559 whole entry, species assumed): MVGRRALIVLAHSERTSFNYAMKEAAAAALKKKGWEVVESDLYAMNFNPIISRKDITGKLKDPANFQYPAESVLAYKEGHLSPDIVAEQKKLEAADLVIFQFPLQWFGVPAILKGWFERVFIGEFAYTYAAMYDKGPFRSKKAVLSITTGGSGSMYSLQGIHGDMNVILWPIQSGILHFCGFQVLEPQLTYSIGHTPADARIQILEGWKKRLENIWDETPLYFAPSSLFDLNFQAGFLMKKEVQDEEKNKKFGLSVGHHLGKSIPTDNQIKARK

| Compound | effect of H2O2 scavenging on β-lap lethality [1] | stability of the HPβCD solution ([2]; 3.3 mM solution in 20% HPβCD) | increase in solubility over PBS alone ([2]; 20% HPβCD) | concentration of solution that can be made in HPβCD ([2]; 20% HPβCD in pH 7.4 PBS, pH raised with NaOH then returned to pH 7.5-8.0) | concentration of solution permitted by 40% HPβCD ([2]; 40% HPβCD, concentration increases linearly with HPβCD) | solubility of DNQ in PBS [3] | efficiency of processing by NQO1 in vitro (NQO1) |
| --- | --- | --- | --- | --- | --- | --- | --- |
| Catalase | significantly spared β-lap-mediated lethality | – | – | – | – | – | – |
| Cc1cc(=O)[nH]c2c1C(=O)c1c(C)cc(=O)n(C)c1C2=O [DNQ, Deoxynyboquinone] | – | at least 24 hours | 30 fold | 3300 µM | 6600 µM | 115 µM | much more efficiently than β-lap |

Source: US20220160703A1, “TUMOR-SELECTIVE COMBINATION THERAPY” (The Board of Regents of The University of Texas System, priority 2019, published 2022)
